In article PMC5515969, “Effects of 31 FDA approved small-molecule kinase inhibitors on isolated rat liver mitochondria” (Archives of Toxicology, 2016):
Read-outs that look alike come from different tables or passages of the source.

Key:
[1] = system: isolated rat liver mitochondria; test: Mitochondrial swelling (absorbance at 535 nm); type: biochemical; conditions: for Swelling 1XCmax / Swelling 2.5XCmax / Swelling 5XCmax / Swelling 10XCmax / Swelling 20XCmax / Swelling 30XCmax / Swelling 50XCmax / Swelling 100XCmax: difference in signal between KI and DMSO treated samples at the end of experiments; for effect on mitochondrial swelling: up to 100-fold Cmax or highest testable concentration, 25 µM calcium chloride; on Swelling 5XCmax: key: 0 indicates that the drug had no effects (negative)
RCC V = RCC V activity in submitochondrial particles; type: biochemical, rat; on RCC V at 5XCmax: key: 0 indicates that the drug had no effects (negative)
In short: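 Abs 340 nm (I/V) or 600 nm (II), 1-min reads × 6 min; 550 nm (III, IV), 10-s reads × 2 min. RCC I = rotenone-free minus rotenone rate. DMSO control = 1.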

[2] = cited from earlier work
[3] = ref product labeling, cited from earlier work
[4] = Solubility of DMSO stock for 100X/50X Cmax testing; type: physicochemical; conditions: precipitation of DMSO stock
Excerpt: (§1) Supplement 204_2016_1918_MOESM3_ESM.xlsx, sheet "Sheet1" | column: 100 Cmax; 50 Cmax; note

[5] = system: isolated rat liver mitochondria; test: Mitochondrial toxicity, any endpoint, intact mitochondria and submitochondrial particles; type: biochemical; conditions: for mitochondrial injury: concentrations equal to 100-fold Cmax; for lowest concentration causing significant mitochondrial toxicity: any endpoint
In short: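 Rat liver mitochondria isolated by differential centrifugation in sucrose/Tris-MOPS/EGTA buffer pH 7.4, adjusted to 1 mg/ml protein before treatment. Kinase inhibitors added at 1:1000 dilution of stock; final DMSO 0.1%, with 0.1% DMSO controls.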

[6] = design: method as in product labeling; conditions: ref product labeling, cited from earlier work
[7] = Solubility of drug in DMSO stock / reaction buffer at multiples of Cmax; type: physicochemical
Excerpt: as §1

RCC I–V = test: Activities of RCC I–V, overall statements; type: biochemical, rat; conditions: submitochondrial particles; for RCCs inhibited: up to 100-fold Cmax or highest testable concentration
In short: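 Absorbance kinetics: A340 (RCC I, V) and A600 (RCC II) read each minute over 6 min, A550 (RCC III, IV) every 10 s over 2 min; RCC I taken as […]. Particles (1 mg/ml) pretreated 15 min with compound; DMSO-treated activity = 1.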

[8] = 1 DILI positive, 0 negative according to labeling, ref product labeling
[9] = BBW: black box warning, W&P: Warnings and Precautions

Compound | Swelling 1XCmax [1] | Swelling 2.5XCmax [1] | Swelling 5XCmax [1] | Swelling 10XCmax [1] | Swelling 20XCmax [1] | Swelling 30XCmax [1] | Swelling 50XCmax [1] | Swelling 100XCmax [1] | RCC V at 5XCmax (RCC V; DMSO treated samples set as 1) | RCC V at 50XCmax (RCC V; DMSO treated samples set as 1) | DILI potential (based on labeling) [2, 8] | Potential for cardiotoxicity (based on labeling) [3] | note (DMSO stock) [4] | mitochondrial injury [5] | lowest concentration causing mitochondrial swelling [1] | effect on mitochondrial swelling [1] | lowest concentration causing significant mitochondrial toxicity [5] | DILI potential (based on labeling) ([2]; ref FDA product labeling) | RCCs inhibited (RCC I–V) | further results
CC(=O)c1c(C)c2cnc(Nc3ccc(N4CCNCC4)cn3)nc2n(C2CCCC2)c1=O.Cl [palbociclib hydrochloride] | 0 | 0 | 0 | 0 | 0 | 0 | 0 | 0 | 0 | 0 | 0 | 0 | 100X will precipitate |  |  |  |  |  |  | 
CC[C@H](Nc1ncnc2[nH]cnc12)c1nc2cccc(F)c2c(=O)n1-c1ccccc1 [Idelalisib] | 0 | 0 | 0 | 0 | 0 | 0 | 0 | 0 | 0 | 0 |  | 0 | 464 mM will precipitate | mitochondrial injury was induced |  |  |  |  |  | 
CNC(=O)c1cc(Oc2ccc(NC(=O)Nc3ccc(Cl)c(C(F)(F)F)c3)c(F)c2)ccn1 [Regorafenib] | 0.46±0.03 |  |  |  |  |  |  |  |  |  |  |  |  | mitochondrial injury was induced | onefold | significant mitochondrial swelling | equal to the Cmax | 1 | RCC II | mitochondrial swelling ([1]; onefold Cmax): almost maximal swelling; RCC V at 5XCmax (RCC V; relative to DMSO treated samples): 0; RCC activity V (RCC V; 10-fold Cmax, 15 min, DMSO-treated = 100): 90.36 ± 13.39 % of control; DILI potential (based on labeling) ([2]; 1 = DILI positive, 0 = negative, ref product labeling): 1; Labeling for DILI ([2]; BBW: black box warning, W&P: Warnings and Precautions, ref product labeling): BBW: fatal DILI; labeling for DILI ([2]; W&P warnings and precautions, BBW black box warnings, ref FDA product labeling): BBW: fatal DILI; Labeling for cardiotoxicity [6, 9]: W&P: Cardiac Ischemia and Infarction; Potential for cardiotoxicity (based on labeling) [6]: 1; note (solubility) [7]: 808 mM will precipitate; lowest concentration inhibiting RCCs (RCC I–V): 10 fold Cmax
CC(C)(C)c1nc(-c2cccc(NS(=O)(=O)c3c(F)cccc3F)c2F)c(-c2ccnc(N)n2)s1 [Dabrafenib] | 0 | 0 | 0 | 0.20±0.02 | 0.48±0.05 | 0.46±0.05 | 0.44±0.04 | 0.39±0.04 | 0 | 0 | 0 | 1 |  |  | tenfold | significant mitochondrial swelling | 5 fold Cmax | 0 | no effects on RCC activities | Labeling for cardiotoxicity [3, 9]: W&P: Cardiomyopathy
